Measured values reported in patent US20250057791A1, “PROTECTION AGAINST ARTHROPOD PARASITES WITH PURINERGIC RECEPTOR (OPR) ANTAGONISTS” (priority 2021, published 2025).
“And” between values parts separate entries of the source, which are not always exact repeats. Identical values can stand only once. “Also recorded” adds a separate entry of the source. Residues, ends and D or L forms follow the SMILES beside them.

Key:
[1] = test system: A. gambiae labellum sensilla (purine-sensitive cell); assay: Tip recording of action potentials from A. gambiae labellum sensilla in response to agonists; format: cell-based, Anopheles gambiae; settings: for ED95 / dose at which the unsurmountable asymptote is reached / EC50: spike frequency as a function of dose; for EC50: Anopheles gambiae, read-out: ED50 (the source's name); for spikes recorded at the asymptote: at 250 pM; for Mean spike frequency per 2 s (±SEM): each compound at 200 pM alone and in binary mixtures, T1 labellum sensilla
Experimental: (§1) The tip recording method was used to record action potentials (spikes) from sensory cells in sensilla on A. gambiae labellum lobes.
(§2) Sensilla were exposed to test compounds and PR antagonists for ca. 2-4 s and spikes were counted in the first 2 s of recordings. Up to 4 test compounds were tested on a sensillum to evaluate potential agonists, each presented at 200 pM. To study responses as a function of dose for agonists ATP, adenosine, AMP, AMP-CPP and ATP+adenosine, up to 7 recordings were made at increasing doses of agonist from the same sensillum. Unless otherwise stated, recordings were made throughout from 4 to 16 sensilla from individual 4-6-day-old females per dose of agonist, antagonist and metal ion modulator. For example, a response curve established over 6 doses of an antagonist using 8 sensilla per dose involved recording from a sensillum of 48 separate mosquitoes. A given dose of a PR antagonist or metal ion modulator was only presented once to a sensillum. Two-second recordings were imported as ASCII files into DataView software for analysis of spike amplitude. Differences in spike amplitude generated by stimulation of one 8v sensillum/female with 1 mM sucrose (n=294 spikes from 6 females) 200 pM adenosine (n=207 spikes from 7 females) and 200 pM ATP (n=192 spikes from 7 females) were compared by measuring the spike amplitude in mV between the highest point of depolarisation and the lowest point of hyperpolarisation.
Spike counts elicited by 200 pM doses of nucleotides, nucleosides, purines, pyrimidines and water were log(x+1.25)-transformed (optimal constant numerically established using a maximum likelihood procedure) and analysed using a linear mixed effects model (function ‘lme’ in “nlme” R package) with mosquito number as random effect. To model inhomogeneous variance in residuals (near normal distribution, P=0.045, Shapiro-Wilk test, W=0.98604), the variance function ‘varldent’ in the “nlme” package that allows for different variance per treatment was used. Statistical differences were identified between treatments using post-hoc-Tukey test with contrasts adjusted by Holm's family wise error compensation (FWEC). Spike counts elicited by ATP, AMP, adenosine and their binary mixtures were analysed using a generalised linear model (LM) of log (x+10) transformed data and differences were identified using post-hoc-Tukey test with Holm's FWEC.
Log transformed spike amplitudes generated in response to ATP, adenosine and sucrose were compared using linear mixed effects models using the ‘lme’ function of the “nlme” R package, with spike amplitude as the dependent variable, treatment as the fixed factor and mosquito number within treatment as random effect. Residuals were normally distributed (Shapiro-Wilk test P>0.0563) and their variances homogeneous (Bartlett test P>0.9799); P-values were corrected using Holm's FWEC.
Dose-response models fitted to mosquito data were generated using the ‘drm’ command in the “drc” R package (version 2.5-12). Best fitting models (goodness of fit) and effects of dose of a compound were assessed using, respectively, ‘modelFit’ and ‘noEffect’ functions in the same R package. A 3-parameter logistic model (L3) was fitted to spike-counts recorded to increasing doses of adenosine, AMP, ATP and AMP-CPP. Spike numbers recorded in response to 200 pM ATP with increasing doses of PR antagonists added were analysed using a 4-parameter log-logistic model (LL.4) for A-317491 and spinorphin, using a 4-parameter Weibull model (W1.4) for PPADS, RB-2 and TMP, and using a 3-parameter log-logistic model (LL.3) for suramin. An L3 model was fitted to proportions of females feeding on increasing doses of ATP. Feeding rates on 20 μM ATP with increasing doses of a PR antagonist added were analysed using a 4-parameter log-logistic model (LL.4) with the median of the positive control (20 μM ATP) fixed as the upper asymptote. […]

A. gambiae = assay: Membrane feeding assay, A. gambiae; format: in vivo, Anopheles gambiae
Experimental: Experiments with A. gambiae and A. stephensi were made in a climate chamber at 28° C. and 80% RH during the last 6 hours of scotophase. As a sugar meal can interfere with the blood meal by reducing the number of females that feed, the sucrose solution supplied in rearing cages to mosquitoes employed for feeding experiments was reduced to 5%. […] The 5% sucrose solution was presented to mosquitoes from emergence on four 1 cm diam. cotton dental rolls (Hartmann A G, Neuhausen, Switzerland) inserted in 10 ml upturned glass vials placed in holes at each corner of the rearing cage ceiling. Cotton rolls were turned daily in vials and renewed every two days. Mosquitoes were not fed blood and were deprived of sucrose 17 to 20 hours before experiments. Thirty min before a feeding experiment, between 10-25, 6-day-old females that responded to activation by human breath were removed with a mouth aspirator from the rearing cage wall and placed in polystyrol cylinders with the floor cut out (10 cm dm×15 cm high; Semadeni, Ostermundigen, Switzerland) that served as feeding cages. Each cage was covered with mosquito netting at one end and a soft polyurethane lid at the other.
Mosquitoes were fed for 30 min using a feeding system (Hemotek®, Hemotek Ltd, Blackburn, UK) consisting of 3.5 ml stainless steel reservoirs 37 mm in diameter covered with a 60-90 μm thick silicone-impregnated membrane (Kröber and Guerin, 2007 in “Feeding assays for hard ticks”, Trends in parasitology 23, 445-449; doi 10.1016/j.pt.2007.07.010). Feeding reservoirs reached a temperature of 37° C. within 10 min and were placed on the netting of feeding cages. Mosquitoes were activated using a 200 ms pulse of pure CO2 (volume 6.25 ml) from a pressurised cylinder (Carbagas, Switzerland) using a solenoid valve that caused the CO2 level in the feeding cage to rise to at least 1,500 ppm. Between 3 and 4 sets of 10 feeding cages held in a custom-built Ertacetal® POM frame were tested per day, depending of the number of female mosquitoes available from the colony.
All compounds were tested in a mosquito feeding solution (FS) consisting of 25 mM dextrose, 25 mM NaCl buffered with 8.93 mM NaHCO3 adjusted to pH 7.4. Feeding responses of A. gambiae and A. stephensi to ATP as a function of dose were tested with between 7 to 10 feeding cages per dose. Each feeding experiment with an antagonist systematically included a treatment containing the FS as negative control along with a treatment containing the FS with […] added as positive control for A. gambiae and with […] added as positive control for A. stephensi. These positive and negative controls permitted to monitor any effect of experimental day on feeding responses as a function of dose for antagonists that were recorded over several days. […] Four to 10 cages each with 10 to 29 mosquitoes were tested per antagonist dose. […] The number of feeding cages used to test other compounds and their mixtures as feeding stimulants or as feeding inhibitors is listed on Table 6. The percentage of fed mosquitoes was estimated by visual inspection of abdominal distention that is indicative of engorgement.
Pairwise comparisons of A. gambiae electrophysiological (EP) responses to ATP and adenosine alone and combined with a given dose of PR antagonist, EP responses to ATP alone and combined with a given dose of a metal modulator, and EP responses to ATP prior to and after exposure of a sensillum to a given dose of a PR antagonist were made with a one-tailed Wilcoxon signed-rank test for data showing a non-normal distribution, with a paired Student's t-test for normally distributed data showing homogeneous variance and with a Welch's t-test for normally distributed data showing non-homogeneous variance. […]

[2] = test system: A. gambiae mouthpart ATP-sensitive receptor; assay: Electrophysiological response to 200 pM ATP with PR antagonist admixed; format: cell-based, Anopheles gambiae; settings: for ID95 in nM (±s.e.m.): increasing doses admixed to 200 pM ATP
Experimental: as §1, §2
Pairwise comparisons of A. gambiae electrophysiological (EP) responses to ATP and adenosine alone and combined with a given dose of PR antagonist, EP responses to ATP alone and combined with a given dose of a metal modulator, and EP responses to ATP prior to and after exposure of a sensillum to a given dose of a PR antagonist were made with a one-tailed Wilcoxon signed-rank test for data showing a non-normal distribution, with a paired Student's t-test for normally distributed data showing homogeneous variance and with a Welch's t-test for normally distributed data showing non-homogeneous variance. Effects on feeding of adding ATP, AMP-CPP, adenosine, ATP+adenosine, AMP and ADP-βS, CPT with ATP or adenosine, TMP with ATP+adenosine, TMP+CPT with ATP+adenosine to the FS for A. gambiae, and of adding PR antagonists with ATP to the FS for A. stephensi were compared using one-tailed Mann-Whitney U-test or Welch's t-test, depending on data distribution; Holm's FWEC was applied where treatment comparisons involved the same positive control. Percent feeding inhibition induced by PR antagonists in A. stephensi was calculated using Abbott's formula.
Dose-response models fitted to mosquito data were generated using the ‘drm’ command in the “drc” R package (version 2.5-12). Best fitting models (goodness of fit) and effects of dose of a compound were assessed using, respectively, ‘modelFit’ and ‘noEffect’ functions in the same R package. A 3-parameter logistic model (L3) was fitted to spike-counts recorded to increasing doses of adenosine, AMP, ATP and AMP-CPP. Spike numbers recorded in response to 200 pM ATP with increasing doses of PR antagonists added were analysed using a 4-parameter log-logistic model (LL.4) for A-317491 and spinorphin, using a 4-parameter Weibull model (W1.4) for PPADS, RB-2 and TMP, and using a 3-parameter log-logistic model (LL.3) for suramin. An L3 model was fitted to proportions of females feeding on increasing doses of ATP. Feeding rates on 20 μM ATP with increasing doses of a PR antagonist added were analysed using a 4-parameter log-logistic model (LL.4) with the median of the positive control (20 μM ATP) fixed as the upper asymptote. Response dynamics in 3-parameter models are related to the slope b, the upper asymptote, and inflexion point of the model e (the ED50 value), whereas 4 parameter models also include the lower asymptote parameter. […]

## Nc1ncnc2c1ncn2[C@H]1CC[C@@H](COP(=O)(O)OP(=O)(O)OP(=O)(O)O)O1 [ddATP, 2′,3′-Dideoxyadenosine-5′-triphosphate]
[1]; 200 pM
  EP response in words: strongly reduced activity

## Nc1ncnc2c1ncn2C1OC(COP(=O)(O)CP(=O)(O)OP(=O)(O)O)C(O)C1O (stereo not drawn) [AMP-CPP, α,β-Methyleneadenosine-5′-triphosphate]
A. gambiae; 20 μM in feeding solution
  % Engorged mosquitoes: 84.35% and 84.3 ± 6.8%
[1]
  ED95: 50 pM
  dose at which the unsurmountable asymptote is reached: 80 pM

## CC(C)C[C@H](N)C(=O)N[C@H](C(=O)N[C@H](C(=O)N[C@@H](Cc1ccc(O)cc1)C(=O)N1CCC[C@H]1C(=O)N[C@@H](Cc1c[nH]c2ccccc12)C(=O)N[C@H](C(=O)O)[C@@H](C)O)C(C)C)C(C)C [Spinorphin, L-leucyl-L-valyl-L-valyl-L-tyrosly-L-prolyl-L-tryptophyl-L-threonine] (H-LVVYPWT-OH)
A. gambiae; 100 nM, with 20 μM ATP
  % reduction in feeding: (100 nM, 27.31%)
A. gambiae; 20 μM ATP, CPT at 10 μM
  effect on feeding on solution containing ATP, in words: inhibited feeding
A. gambiae; antagonist 100 nM + 20 μM ATP
  % fed mosquitoes (mean ± s.e.m.), ATP + antagonist: 46.62%
[2]; 200 pM ATP, suramin at 1 nM
  effect on EP response to ATP, in words: inhibited
[2]; antagonist 1 nM + 200 pM ATP
  Mean no. of spikes per 2 s (±s.e.m.), ATP + antagonist: 9.8 spikes per 2 s
[2]
  ID95 in nM (±s.e.m.): 0.43 nM
[2]; listed as spinorphin
  ID95 in nM (±s.e.m.): ca. 0.4 nM

## Fc1ccc([C@@H]2CCNC[C@H]2COc2ccc3c(c2)OCO3)cc1 [Paroxetine, (3S,4R)-3-(1,3-benzodioxol-5-yloxymethyl)-4-(4-fluorophenyl)piperidine]
A. gambiae; antagonist 20 μM + 20 μM ATP
  % fed mosquitoes (mean ± s.e.m.), ATP + antagonist: 62.72%
A. gambiae; maximum dose 20 μM, with 20 μM ATP
  feeding inhibition at maximum dose tested: No feeding inhibition
[2]; antagonist 2000 nM + 200 pM ATP
  Mean no. of spikes per 2 s (±s.e.m.), ATP + antagonist: 27.6 spikes per 2 s
[2]; maximum dose 2 μM, admixed to 200 pM ATP
  ID50/ID95: block at maximum dose tested: No block (2 μM)

## Nc1ncnc2c1ncn2[C@H]1C[C@H](O)[C@@H](COP(=O)(O)OP(=O)(O)OP(=O)(O)O)O1 [dATP, 2′-Deoxyadenosine 5′-triphosphate]
[1]; 200 pM
  EP response in words: strongly reduced activity

## Nc1ncnc2c1ncn2[C@@H]1O[C@H](COP(=O)(O)OP(=O)(O)O)[C@@H](O)[C@H]1O [ADP, Adenosine 5′-diphosphate]
[1]; 200 pM
  EP response in words: no activity; also recorded: failure

## Nc1ncnc2c1ncn2[C@@H]1O[C@H](COP(=O)(O)O)[C@@H](O)[C@H]1O [AMP, Adenosine 5′-monophosphate]
A. gambiae; 20 μM in feeding solution
  % Engorged mosquitoes: 38.3 ± 5.1%
[1]
  EC50: ~0.12 nM
  spikes recorded at the asymptote: approximately 30 spikes/2 s
  Mean spike frequency per 2 s (±SEM): 28.58 per 2 s
  ED95: ~200 pM
  dose at which the unsurmountable asymptote is reached: 250 pM

## Nc1ncnc2c1ncn2[C@@H]1O[C@H](CO)[C@@H](O)[C@H]1O [Adenosine, 9-β-D-Ribofuranosyladenine]
A. gambiae; 20 μM in feeding solution
  % Engorged mosquitoes: 39.1 ± 5.7%
A. gambiae; 1 mM in feeding solution
  % Engorged mosquitoes: 64.4 ± 3.2%
[1]; 50 pM alone, mixture 50 pM of each agonist
  spike frequency: 1.25±0.62 /2s
[1]; 200 pM
  EP response, spike frequency: 30.23±3.02 spikes/2s
[1]
  EC50: ~0.12 nM
  spikes recorded at the asymptote: approximately 30 spikes/2 s
  Mean spike frequency per 2 s (±SEM): 27.14 per 2 s
  ED95: ~200 pM
  dose at which the unsurmountable asymptote is reached: 250 pM
